In patent publication US11253557B2, “Therapeutic bacteriophage compositions” (priority 2015, dated 2022):
Where “and” joins values, the source holds several entries; their conditions need not be identical. Equal values may be shown once.

System: S. aureus strain UNT144-3
Assay: S. aureus neutropenic lung model (murine pneumonia model)
Assay type: in vivo, Staphylococcus aureus
Settings: neutropenic mice, 100 mg/kg SC at 2 and 6 hrs post-infection, CFU assessed 24 hr
Procedure: In a non-limiting example, the sensitivity of two S. aureus clinical isolates, UNT109-3 (NRS234, native valve endocarditis) and UNT144-3, that have been previously utilized in animal models of infection, was evaluated vs. the individual phage and the 4-phage cocktail. […] The virulence of the two strains was then evaluated in the murine lung infection model. Female Hsd:ICR(CD-1) mice (Harlan Laboratories, Houston, Tex.) were administered 150 and 100 mg/kg cyclophosphamide on day −4 and day −1 prior to infection to render them neutropenic. Groups of 5 mice were then anaesthetized by intraperitoneal (IP) injection of 0.15 mL of a mixture of ketamine HCl (100 mg/kg body weight) plus xylazine (10 mg/kg body weight). Once anaesthetized, mice were infected intranasally by placing drops on the external nares and allowing inhalation of the 50 μl inoculum. Twenty-four hours after infection, mice were euthanized by CO2 inhalation and lungs processed for bacterial titers. Bacterial counts were enumerated on Brain Heart Infusion agar (Difco™ Laboratories)+0.5% activated charcoal (Sigma-Aldrich) plates for ease of recovering and detecting S. aureus (Barr, J. G., et al., J Clin. Pathol. (1987) 40:372-376). […]
Three phage cocktail treatment groups were evaluated for efficacy: 2×10^10 PFU/mL per phage, 2×10^9 PFU/mL per phage, and 2×10^8 PFU/mL per phage. […]

CN[C@H](CC(C)C)C(=O)N[C@H]1C(=O)N[C@@H](CC(N)=O)C(=O)N[C@H]2C(=O)N[C@H]3C(=O)N[C@H](C(=O)N[C@H](C(=O)O)c4cc(O)cc(O)c4-c4cc3ccc4O)[C@H](O)c3ccc(c(Cl)c3)Oc3cc2cc(c3O[C@@H]2O[C@H](CO)[C@@H](O)[C@H](O)[C@H]2O[C@H]2C[C@](C)(N)[C@H](O)[C@H](C)O2)Oc2ccc(cc2Cl)[C@H]1O [Vancomycin]
Mean ± SD logo CFU/Lung Pair: 5.55 log10 CFU/lung pair and 5.55 ± 1.1 log10 CFU/lung pair
